Assay results: PMC9318536, “Novel Cyclic Peptides for Targeting EGFR and EGRvIII Mutation for Drug Delivery” (Pharmaceutics, 2022)
Entries after “also recorded” stand apart in the source; their conditions may differ. Like-named read-outs stand apart in the source and are kept apart here. Marks after values point to notes of the source that are not given here. Positions of bridges follow the written chain, without caps; N, C: chain ends. Residues, ends and D or L forms follow the SMILES beside them. No end group written: not given here. *: point of attachment. Camptothecin(20S-OCO) = CC[C@@]1(OC(=O)*)C(=O)OCc2c1cc1n(c2=O)Cc2cc3ccccc3nc2-1; GABA = NCCCC(=O)O

Columns and labels:
H1299 cells = test: XTT cytotoxicity of peptides, peptide-CPT conjugates and CPT on H1299 cells; conditions: for cell viability relative to control untreated cells (IC50 could not be calculated): H1299, XTT; for IC50: Homo sapiens
Protocol: (§1) Cell growth in the presence of PDCs was measured by a commercial XTT assay kit (Cell Proliferation Kit, XTT based; Sartorius, Israel). The cells were seeded in 96-well plates (10^4 cells/well) and incubated overnight in a complete growth medium. They were then washed and re-cultured in 100 µL of fresh complete medium containing various concentrations of free drugs or PDCs, for 24, 48, and 72 h. The XTT solution was added to each well and the plate was further incubated for 2–3 h at 37 °C. The optical densities in the wells were measured at both 480 and 680 nm using a TECAN Infinite M200 ELISA reader. All tests were performed in triplicate, and each experiment was repeated three times.
(§2) The cytotoxicity of the PDCs was tested against H1299 and DKMG cells using two protocols. In the first protocol, cells were incubated in a complete medium containing a range of concentrations (0.5–50 µM) of P6, P9, P6-CPT, or P9-CPT for 6 h, after which, the medium was replaced with fresh, drug-free, complete medium, and the cells were cultured for an additional 24 h (designated as 6h24h) or 48 h (6h48h). In the second protocol, cells were exposed continuously to free drugs or PDCs for 24, 48, and 72 h. For each case, during the culture period, cell cytotoxicity was determined as described above and IC50 values were calculated.

DKMG cells = test: XTT cytotoxicity of peptides, peptide-CPT conjugates and CPT on DKMG cells; type: cell-based; conditions: for cell viability relative to control untreated cells (IC50 could not be calculated) / IC50 / effect on cell viability (in words): XTT; for IC50: non-linear regression, mean ± SD, triplicate; for effect on cell viability (in words): 24 h pre-incubation protocol
Protocol: as §1, §2

[1] = Drug release / PDC breakdown in complete growth medium; type: in vitro ADME; conditions: RPMI and DMEM complete growth media, 37 °C, 0–72 h, LC–MS, triplicate
Protocol: PDC breakdown rates were determined as described elsewhere. Briefly, peptide-FITC and peptide–CPT conjugates were incubated at 37 °C in 1 mL of DMEM or RPMI full-growth medium for […], 3, 7, 24, 48, and 72 h. At each time point, 10 µL of the sample was taken and mixed with 25 µL ACN/H20 (1:1, v/v.). The samples were centrifuged at 1400 rpm for 15 min. Supernatants were collected, filtered, and analyzed by liquid chromatography–mass spectrometry (LC–MS).
The release rates of CPT from P6-CPT and P9-CPT were measured in RPMI and DMEM complete growth media at 37 °C for 0, 0.5, 3, 7, 24, 48, and 72 h according to the procedure. The degradation of the conjugates and the CPT release were analyzed by LC–MS. […] The conjugates degraded with a half-life of 6–7 h (Figure 8).

EGFR on H1299 cells = target: T1, EGFR on H1299 cells (Homo sapiens, UniProt P00533); test: Competitive binding assay with EGF by FACS; type: cell-based; conditions: H1299, 2.5 µM FITC-labeled peptides with or without 80 nM EGF, 4 °C 1 h then 37 °C 15 min, duplicate
T1 construct: H1299, H1975, and DKMG cells were characterized by cell surface overexpression of EGFR; endogenous in cells; host or cells: H1299 cells (ATCC)
Protocol: H1299 and DKMG cell lines were cultured in a complete RPMI growth medium in a 6-well plate overnight, until 80% confluent. Pre-incubation was performed with a blocking buffer consisting of 5 mg/mL BSA in PBS, pH 7.4, at 4 °C for 30 min. Then, cells were washed twice in PBS and incubated with 2.5 µM of FITC-labeled peptides with or without 80 nM EGF at 4 °C for 1 h. The cells were then incubated for 15 min at 37 °C under 5% CO2 to allow for peptide internalization. The cells were washed twice by centrifugation at 265× g for 5 min and analyzed by flow cytometry.
Figure 3 Competitive uptake of P3, P4, P5, P6, P9, and P11 peptides by FACS. Fluorescence was measured for H1299 cells (30,000 cells) after incubation with (2.5 µM) P3–P6, P9, and P11 by FITC-labeled peptides in the absence or presence of 80 nM of the EGF protein. The experiments were performed in duplicate. For each sample, the mean ± SD is shown (** p < 0.01, *** p < 0.001).

[2] = 6 h exposure then 24 h drug-free medium (6h24h), 0.5–50 µM
[3] = H1299, first protocol (6 h preincubation, then up to 48 h), XTT

Molecule	cytotoxic effect (in words) (H1299 cells; [3])	half-life of conjugate degradation (CPT release) [1]	cytotoxic effect (in words) (H1299 cells)	competition of EGF with peptide uptake (EGFR on H1299 cells)	effect on cell viability (in words) (DKMG cells)	also measured
CC[C@@]1(O)C(=O)OCc2c1cc1n(c2=O)Cc2cc3ccccc3nc2-1 [CPT, camptothecin]						cell viability relative to control untreated cells (IC50 could not be calculated) (H1299 cells; [2]): >50% *; cell viability relative to control untreated cells (IC50 could not be calculated) (H1299 cells; continuous exposure 48 h): <45%; cell viability relative to control untreated cells (IC50 could not be calculated) (H1299 cells; continuous exposure 72 h): <15%; IC50 (H1299 cells; NCI-H1299): 6.7 ± 1.8 µM; IC50 (H1299 cells; NCI-H1299, 24 h): 54.8 ± 2 µM; cell viability relative to control untreated cells (IC50 could not be calculated) (DKMG cells; [2]): >50% *; IC50 (DKMG cells; 6 h exposure then 48 h in drug-free medium (6h48h), 0.5–50 µM): 8.5 ± 1 µM; IC50 (DKMG cells; continuous exposure 24 h): 25 ± 1.3 µM; cell viability relative to control untreated cells (IC50 could not be calculated) (DKMG cells; continuous exposure 48 h): <50% **; cell viability relative to control untreated cells (IC50 could not be calculated) (DKMG cells; continuous exposure 72 h): <40% **
CC[C@H](C)[C@@H]1NC(=O)[C@H](Cc2ccc(O)cc2)NC(=O)[C@H](CO)NC(=O)CNC(=O)[C@@H]2CCCN2C(=O)[C@H](C(C)C)NC(=O)[C@H](Cc2cnc[nH]2)NC(=O)[C@@H](NC(=O)CCCNC(=O)O[C@]2(CC)C(=O)OCc3c2cc2n(c3=O)Cc3cc4ccccc4nc3-2)CSSC[C@@H](C(N)=O)NC1=O [P6-CPT] ({Camptothecin(20S-OCO)-GABA}-CHVPGSYIC-NH2; disulfide 1-9)	exhibited cytotoxic effects after 48 h	6 to 7 h				
CC[C@H](C)[C@@H]1NC(=O)[C@H](Cc2ccc(O)cc2)NC(=O)[C@H](CO)NC(=O)CNC(=O)[C@@H]2CCCN2C(=O)[C@H](C(C)C)NC(=O)[C@H](Cc2c[nH]cn2)NC(=O)[C@@H](N)CSSC[C@@H](C(=O)O)NC1=O [P6] (H-CHVPGSYIC-OH; disulfide 1-9)			not toxic	better competition with EGF compared to P11		
CC[C@@]1(OC(=O)NCCCC(=O)N[C@H]2CSSC[C@@H](C(N)=O)NC(=O)[C@H](Cc3ccc(O)cc3)NC(=O)[C@H](CO)NC(=O)[C@H](CCC(N)=O)NC(=O)[C@H](CCSC)NC(=O)[C@H](C)NC(=O)[C@H](CC(N)=O)NC(=O)[C@H](C(C)C)NC2=O)C(=O)OCc2c1cc1n(c2=O)Cc2cc3ccccc3nc2-1 [P9-CPT] ({Camptothecin(20S-OCO)-GABA}-CVNAMQSYC-NH2; disulfide 1-9; C-terminus assumed)	exhibited cytotoxic effects after 48 h	6 to 7 h			did not affect cell viability	IC50 compared to free CPT (DKMG cells; 6 h exposure then 48 h): four-fold higher
CSCC[C@@H]1NC(=O)[C@H](C)NC(=O)[C@H](CC(N)=O)NC(=O)[C@H](C(C)C)NC(=O)[C@@H](N)CSSC[C@@H](C(=O)O)NC(=O)[C@H](Cc2ccc(O)cc2)NC(=O)[C@H](CO)NC(=O)[C@H](CCC(N)=O)NC1=O [P9] (H-CVNAMQSYC-OH; disulfide 1-9)			not toxic	EGF significantly competed; also recorded: better competition with EGF compared to P11	did not affect cell viability	
CAQYTPGRC (disulfide 1-9) [P11]				EGF significantly competed		
